# Source: US10513523B2, “Imidazopyrazines and pyrazolopyrimidines and their use as AMPA receptor modulators” (Janssen Pharmaceutica NV, priority 2015, dated 2019)
# Biological target: GluA1o-γ8 (GRIA1o-CACNG8 fusion construct; TARP γ8 dependent AMPA receptor) (Homo sapiens (Human), UniProt P42261+Q8WXS5)
# Test: Calcium flux assay (FLIPR), inhibition of glutamate response of GluA1o-γ8 channel
# Format: cell-based
# Settings: HEK293 cells stably expressing GRIA1o-CACNG8 fusion; 15 μM glutamate; pIC50 = negative log of IC50 in molar; read-out: GluR1-γ8 (pIC50) (converted)
# How it was run: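 Potency is the midpoint of a four-parameter logistic fit to control-normalized FLIPR calcium responses elicited by 15 μM glutamate. Stable HEK293 cells carried a fused GluA1o-γ8 construct and were preincubated with compound and calcium dye in pH 7.4 HEPES buffer.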
# Chain of GluA1o-γ8 (GRIA1o-CACNG8 fusion construct; TARP γ8 dependent AMPA receptor) (P42261 other isoform, or with tags, fused parts or gaps): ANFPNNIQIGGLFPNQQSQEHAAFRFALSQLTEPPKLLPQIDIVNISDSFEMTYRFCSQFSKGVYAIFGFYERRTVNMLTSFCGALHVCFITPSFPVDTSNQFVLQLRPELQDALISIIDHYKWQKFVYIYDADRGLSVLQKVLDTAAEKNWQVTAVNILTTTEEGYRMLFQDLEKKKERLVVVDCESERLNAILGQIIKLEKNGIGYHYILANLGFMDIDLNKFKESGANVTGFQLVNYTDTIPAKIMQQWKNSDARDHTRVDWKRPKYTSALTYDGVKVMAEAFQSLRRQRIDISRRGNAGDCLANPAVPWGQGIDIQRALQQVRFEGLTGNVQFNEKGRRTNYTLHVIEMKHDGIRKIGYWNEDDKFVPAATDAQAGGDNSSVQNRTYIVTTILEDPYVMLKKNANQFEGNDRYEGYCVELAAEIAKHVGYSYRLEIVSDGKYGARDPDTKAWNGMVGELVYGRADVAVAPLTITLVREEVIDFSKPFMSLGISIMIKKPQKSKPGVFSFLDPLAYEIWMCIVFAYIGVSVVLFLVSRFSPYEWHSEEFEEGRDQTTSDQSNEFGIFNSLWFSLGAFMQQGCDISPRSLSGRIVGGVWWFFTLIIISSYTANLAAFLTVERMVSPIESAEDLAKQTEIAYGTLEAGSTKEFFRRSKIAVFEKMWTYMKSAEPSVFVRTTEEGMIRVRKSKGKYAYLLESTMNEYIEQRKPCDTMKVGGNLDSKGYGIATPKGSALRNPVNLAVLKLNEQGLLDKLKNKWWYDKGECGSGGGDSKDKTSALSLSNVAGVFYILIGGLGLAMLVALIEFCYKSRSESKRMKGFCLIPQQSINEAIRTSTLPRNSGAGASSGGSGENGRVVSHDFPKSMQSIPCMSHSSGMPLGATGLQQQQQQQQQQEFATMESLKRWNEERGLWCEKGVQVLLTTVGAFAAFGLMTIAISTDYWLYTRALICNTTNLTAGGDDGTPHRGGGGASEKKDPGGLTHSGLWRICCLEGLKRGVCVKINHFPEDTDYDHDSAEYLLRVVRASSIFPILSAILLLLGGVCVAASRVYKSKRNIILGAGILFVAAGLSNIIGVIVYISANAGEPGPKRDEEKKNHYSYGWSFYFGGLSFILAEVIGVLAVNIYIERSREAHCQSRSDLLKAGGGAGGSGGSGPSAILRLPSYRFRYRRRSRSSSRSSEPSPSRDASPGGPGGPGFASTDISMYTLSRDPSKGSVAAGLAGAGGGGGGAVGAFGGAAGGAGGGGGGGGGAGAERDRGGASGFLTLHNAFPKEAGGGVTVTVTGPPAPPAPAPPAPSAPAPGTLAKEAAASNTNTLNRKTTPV
row,Compound,IC50
1,"O=C(NC1CC1)c1nc2c(N3CCOCC3)nccn2c1-c1ccc2[nH]c(=O)[nH]c2c1 [Example 146, N-Cyclopropyl-8-morpholino-3-(2-oxo-1,3-dihydrobenzimidazol-5-yl)imidazo[1,2-a]pyrazine-2-carboxamide]",316 nM
2,"CCCNC(=O)c1nc2c(N3CCOCC3)nccn2c1-c1ccc(O)cc1 [Example 148, 3-(4-Hydroxyphenyl)-8-morpholino-N-propyl-imidazo[1,2-a]pyrazine-2-carboxamide]",631 nM
3,"O=C(c1ccc(F)cc1)c1nc2c(N3CCOCC3)nccn2c1-c1ccc(O)cc1 [Example 149, (4-Fluorophenyl)(3-(4-hydroxyphenyl)-8-morpholinoimidazo[1,2-a]pyrazin-2-yl)methanone]",3.98 nM
4,"O=C1Cc2cc(-c3c(-c4ccc(F)cc4)nc4c(N5CCOCC5)ncc(F)n34)ccc2N1 [Example 161, 5-(5-Fluoro-2-(4-fluorophenyl)-8-morpholinoimidazo[1,2-a]pyrazin-3-yl)indolin-2-one]",6.31 nM
5,"O=c1[nH]c2ccc(-c3c(-c4ccc(F)cc4)nc4c(N5CCOCC5)ncc(F)n34)cc2[nH]1 [Example 162, 5-[5-Fluoro-2-(4-fluorophenyl)-8-morpholino-imidazo[1,2-a]pyrazin-3-yl]-1,3-dihydrobenzimidazol-2-one]",3.98 nM
6,"O=C1Cc2cc(-c3c(-c4ccc(F)cc4)nc4c(N5CCOCC5)ncc(Cl)n34)ccc2N1 [Example 163, 5-[5-Chloro-2-(4-fluorophenyl)-8-morpholino-imidazo[1,2-a]pyrazin-3-yl]indolin-2-one]",0.126 nM
7,"O=C1Cc2cc(-c3c(-c4ccc(F)cc4)nn4c(N5CCOCC5)nccc34)ccc2N1 [Example 164, 5-[2-(4-Fluorophenyl)-7-morpholino-pyrazolo[1,5-c]pyrimidin-3-yl]indolin-2-one]",0.501 nM
8,"CC(C)(C)c1nn2cnccc2c1-c1ccc2c(c1)CC(=O)N2 [Example 165, 5-(2-tert-Butylpyrazolo[1,5-c]pyrimidin-3-yl)indolin-2-one]",> 10000 nM
9,"O=C1CN(c2nccc3c(-c4ccc5c(c4)CC(=O)N5)c(-c4ccc(F)cc4)nn23)CCN1 [Example 168, 5-[2-(4-Fluorophenyl)-7-(3-oxopiperazin-1-yl)pyrazolo[1,5-c]pyrimidin-3-yl]indolin-2-one]",1.26 nM
10,"O=C1Cc2cc(-c3c(-c4ccc(F)cc4)nn4c(N5CCS(=O)(=O)CC5)nccc34)ccc2N1 [Example 170, 5-[7-(1,1-Dioxo-1,4-thiazinan-4-yl)-2-(4-fluorophenyl)pyrazolo[1,5-c]pyrimidin-3-yl]indolin-2-one]",0.631 nM
11,"CC(=O)N1CCN(c2nccc3c(-c4ccc5c(c4)CC(=O)N5)c(-c4ccc(F)cc4)nn23)CC1 [Example 172, 5-[7-(4-Acetylpiperazin-1-yl)-2-(4-fluorophenyl)pyrazolo[1,5-c]pyrimidin-3-yl]indolin-2-one]",0.158 nM
12,"O=c1[nH]c2ccc(-c3c(-c4ccc(F)cc4)nn4c(N5CCOCC5)nccc34)cc2o1 [Example 173, 6-[2-(4-Fluorophenyl)-7-morpholino-pyrazolo[1,5-c]pyrimidin-3-yl]-3H-1,3-benzoxazol-2-one]",1.26 nM
13,"O=C1CCN(c2nccc3c(-c4ccc5c(c4)CC(=O)N5)c(-c4ccc(F)cc4)nn23)CC1 [Example 174, 5-[2-(4-Fluorophenyl)-7-(4-oxo-1-piperidyl)pyrazolo[1,5-c]pyrimidin-3-yl]indolin-2-one]",0.0794 nM
14,"O=C1Cc2cc(-c3c(-c4ccc(F)cc4)nn4c(N5CC(F)(F)C5)nccc34)ccc2N1 [Example 176, 5-[7-(3,3-Difluoroazetidin-1-yl)-2-(4-fluorophenyl)pyrazolo[1,5-c]pyrimidin-3-yl]indolin-2-one]",3.16 nM
15,"CC1COCCN1c1nccc2c(-c3ccc4c(c3)CC(=O)N4)c(-c3ccc(F)cc3)nn12 (stereo not shown) [Example 177, 5-[2-(4-Fluorophenyl)-7-(3-methylmorpholin-4-yl)pyrazolo[1,5-c]pyrimidin-3-yl]indolin-2-one]",0.2 nM
16,"O=S1(=O)Cc2cc(-c3c(-c4ccc(F)cc4)nn4c(N5CCOCC5)nccc34)ccc2N1 [Example 178, 5-[2-(4-Fluorophenyl)-7-morpholino-pyrazolo[1,5-c]pyrimidin-3-yl]-1,3-dihydro-2,1-benzothiazole 2,2-dioxide]",2 nM
17,"O=C1Cc2cc(-c3c(-c4ccc(F)cc4)nn4c(N5CC(O)C5)nccc34)ccc2N1 [Example 179, 5-[2-(4-Fluorophenyl)-7-(3-hydroxyazetidin-1-yl)pyrazolo[1,5-c]pyrimidin-3-yl]indolin-2-one]",6.31 nM
18,"O=C1Cc2cc(-c3c(-c4ccc(F)cc4)nn4c(N5CC(CO)C5)nccc34)ccc2N1 [Example 180, 5-[2-(4-Fluorophenyl)-7-[3-(hydroxymethyl)azetidin-1-yl]pyrazolo[1,5-c]pyrimidin-3-yl]indolin-2-one]",2 nM
19,"CC(C)(C)c1nn2c(N3CCC(O)CC3)nccc2c1-c1ccc2c(c1)CC(=O)N2 [Example 181, 5-[2-tert-Butyl-7-(4-hydroxy-1-piperidyl)pyrazolo[1,5-c]pyrimidin-3-yl]indolin-2-one]",200 nM

# Results, then the compound that gave them:
row,IC50,Compound
1,31.6 nM,"O=C1Cc2cc(-c3c(C(=O)NCc4ccccc4)nc4c(N5CCOCC5)nccn34)ccc2N1 [Example 142, N-Benzyl-8-morpholino-3-(2-oxoindolin-5-yl)imidazo[1,2-a]pyrazine-2-carboxamide]"
2,20 nM,"O=C1CN(c2nccn3c(-c4ccc5c(c4)CC(=O)N5)c(C(=O)Nc4ccccc4)nc23)CCN1 [Example 143, 3-(2-Oxoindolin-5-yl)-8-(3-oxopiperazin-1-yl)-N-phenyl-imidazo[1,2-a]pyrazine-2-carboxamide]"
3,6.31 nM,"CN(C)c1nccn2c(-c3ccc4c(c3)CC(=O)N4)c(C(=O)Nc3ccccc3)nc12 [Example 144, 8-(Dimethylamino)-3-(2-oxoindolin-5-yl)-N-phenyl-imidazo[1,2-a]pyrazine-2-carboxamide]"
4,501 nM,"CN(C(=O)c1nc2c(N3CCOCC3)nccn2c1-c1ccc2[nH]c(=O)[nH]c2c1)c1ccccc1 [Example 145, N-Methyl-8-morpholino-3-(2-oxo-1,3-dihydrobenzimidazol-5-yl)-N-phenyl-imidazo[1,2-a]pyrazine-2-carboxamide]"
5,501 nM,"O=C(Nc1ccncc1)c1nc2c(N3CCOCC3)nccn2c1-c1ccc2[nH]c(=O)[nH]c2c1 [Example 147, 8-Morpholino-3-(2-oxo-1,3-dihydrobenzimidazol-5-yl)-N-(4-pyridyl)imidazo[1,2-a]pyrazine-2-carboxamide]"
6,12.6 nM,"O=C(c1ccccc1)c1nc2c(N3CCOCC3)nccn2c1-c1ccc(O)cc1 [Example 151, [3-(4-Hydroxyphenyl)-8-morpholino-imidazo[1,2-a]pyrazin-2-yl]-phenyl-methanone]"
7,3.98 nM,"CN(C)c1nccn2c(-c3ccc4c(c3)CC(=O)N4)c(C(=O)c3ccccc3)nc12 [Example 152, 5-[2-Benzoyl-8-(dimethylamino)imidazo[1,2-a]pyrazin-3-yl]indolin-2-one]"
8,0.316 nM,"O=C1Cc2cc(-c3c(C(=O)c4ccccc4)nc4c(N5CCOCC5)nccn34)ccc2N1 [Example 153, 5-(2-Benzoyl-8-morpholino-imidazo[1,2-a]pyrazin-3-yl)indolin-2-one]"
9,1.58 nM,"O=C1Cc2cc(-c3c(C(=O)c4ccccc4)nc4c(N5CCC(O)CC5)nccn34)ccc2N1 [Example 154, 5-[2-Benzoyl-8-(4-hydroxy-1-piperidyl)imidazo[1,2-a]pyrazin-3-yl]indolin-2-one]"
10,79.4 nM,"O=C1Cc2cc(-c3c(-c4ccc(F)cc4)nc4c(N5CCC(=NO)CC5)nccn34)ccc2N1 [Example 155, 5-[2-(4-Fluorophenyl)-8-(4-hydroxyimino-1-piperidyl)imidazo[1,2-a]pyrazin-3-yl]indolin-2-one]"
11,1.26 nM,"O=C(c1ccccc1)c1nc2c(N3CCOCC3)nccn2c1-c1ccc2[nH]c(=O)oc2c1 [Example 156, 6-(2-Benzoyl-8-morpholino-imidazo[1,2-a]pyrazin-3-yl)-3H-1,3-benzoxazol-2-one]"
12,2.51 nM,"O=C1Cc2cc(-c3c(C(=O)c4ccccc4)nc4c(N5CCS(=O)(=O)CC5)nccn34)ccc2N1 [Example 157, 5-[2-Benzoyl-8-(1,1-dioxo-1,4-thiazinan-4-yl)imidazo[1,2-a]pyrazin-3-yl]indolin-2-one]"
13,5.01 nM,"CC(=O)N1CCN(c2nccn3c(-c4ccc5c(c4)CC(=O)N5)c(C(=O)c4ccccc4)nc23)CC1 [Example 158, 5-[8-(4-Acetylpiperazin-1-yl)-2-benzoyl-imidazo[1,2-a]pyrazin-3-yl]indolin-2-one]"
14,7.94 nM,"O=C(c1ccccc1)c1nc2c(N3CCOCC3)nccn2c1-c1ccc2c(c1)CS(=O)(=O)N2 [Example 159, [3-(2,2-Dioxo-1,3-dihydro-2,1-benzothiazol-5-yl)-8-morpholino-imidazo[1,2-a]pyrazin-2-yl]-phenyl-methanone]"
15,25.1 nM,"CNc1nccn2c(-c3ccc4c(c3)CC(=O)N4)c(-c3ccc(F)cc3)nc12 [Example 167, 5-[2-(4-Fluorophenyl)-8-(methylamino)imidazo[1,2-a]pyrazin-3-yl]indolin-2-one]"
16,1.58 nM,"CN(C)c1nccc2c(-c3ccc4c(c3)CC(=O)N4)c(-c3ccc(F)cc3)nn12 [Example 169, 5-[7-(Dimethylamino)-2-(4-fluorophenyl)pyrazolo[1,5-c]pyrimidin-3-yl]indolin-2-one]"
17,12.6 nM,"CNc1nccc2c(-c3ccc4c(c3)CC(=O)N4)c(-c3ccc(F)cc3)nn12 [Example 171, 5-[2-(4-Fluorophenyl)-7-(methylamino)pyrazolo[1,5-c]pyrimidin-3-yl]indolin-2-one]"
18,631 nM,"O=C1Cc2cc(-c3c(-c4ccc(F)cc4)nn4cnccc34)ccc2N1 [Example 175, 5-[2-(4-Fluorophenyl)pyrazolo[1,5-c]pyrimidin-3-yl]indolin-2-one]"
